Measured values as given in US20090093468A1, “Peptide Deformylase Inhibitors” (priority 2004, published 2009).
Like-named read-outs stand apart in the source and are kept apart here.

Experiments:
[1] = molecular target: bacterial PDF (peptide deformylase), enzyme from E. coli (Escherichia coli, UniProt P0A6K3); test: Bacterial peptide deformylase (PDF) assay, enzyme from E. coli; type: biochemical
Description: (§1) The IC50 value of a compound of the invention as a bacterial PDF inhibitor was determined using the following assay.
(§2) Assay buffer (pH 7.2): 0.1 M MOPS pH was adjusted to 7.2 with NaOH, containing 0.25 M NaCl, 100 microgram/mL catalase and 1 mg/mL BSA.
(§3) Enzyme mix: 670 ng/mL of enzyme (to finally have 50 ng of enzyme per well).
(§4) Substrate: 10 mM f-Met-Ala was made up from 200 mM f-Met-Ala in methanol with assay buffer.
(§5) TNBS solution: Freshly dilute 1 M TNBS stock solution to 1:10 with water.
(§6) Buffer C: 0.5 M borate buffer adjusted to pH 9.5 with NaOH.
(§7) Buffer D: 0.2 ml of freshly prepared 0.5 M Na2SO3 was mixed with 9.8 mL of 0.5M NaH2PO4.
(§8) Inhibitor solution: 2 mM Sodium 4-(hydroxymercurio) benzoate in assay buffer.
(§9) The assay was performed in a 96 Microtiter plate containing test compound. To each well containing test compound mix was added 75 microliter of enzyme mix from E. coli followed, by the addition of 25 microliter of substrate mix. The resulting mix was incubated for 30 minutes at room temperature with shaking. TNBS solution (50 microliter/well) was added and the resulting mixture was incubated for 15 minutes under shaking. Buffer C was then added (20 microliter/well). After incubating at room temperature for 15 minutes under shaking, buffer D was added (50 microliter/well). The optical […] was then measured at 420 nm, thereby determining the IC50 value.

[2] = molecular target: T1, bacterial PDF (peptide deformylase), enzyme from S. aureus (Staphylococcus aureus, UniProt P68826); test: Bacterial peptide deformylase (PDF) assay, enzyme from S. aureus; type: biochemical
T1 sequence (P68826 1-183): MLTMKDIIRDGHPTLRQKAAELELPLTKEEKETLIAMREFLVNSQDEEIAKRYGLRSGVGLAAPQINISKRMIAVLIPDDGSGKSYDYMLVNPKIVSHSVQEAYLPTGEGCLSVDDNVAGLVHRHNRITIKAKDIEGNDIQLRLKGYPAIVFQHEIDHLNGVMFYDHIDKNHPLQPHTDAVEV
Description: as §1, §2, §3, §4, §5, §6, §7, §8, §9
The assay was repeated using enzyme mix from S. aureus.

[3] = PDF enzyme from S. aureus, substrate f-Met-Ala, TNBS readout at 420 nm, read-out: IC50 (enzyme from S. aureus)

Chain of bacterial PDF (peptide deformylase), enzyme from E. coli (P0A6K3 whole entry): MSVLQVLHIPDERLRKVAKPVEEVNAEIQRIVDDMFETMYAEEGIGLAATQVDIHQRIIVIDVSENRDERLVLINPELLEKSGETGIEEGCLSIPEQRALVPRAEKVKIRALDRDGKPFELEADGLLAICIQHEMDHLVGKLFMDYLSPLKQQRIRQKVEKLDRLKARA

Row | SMILES | IC50 [1] | IC50 [2, 3] | IC50 ([1]; PDF enzyme from E. coli, substrate f-Met-Ala, TNBS readout at 420 nm, read-out: IC50 (enzyme from E. coli)) | IC50 [2]
1 | CCN1CC(CC(=O)NO)S(=O)(=O)c2ccc(C(=O)NCc3ccncc3)cc21 (stereo not shown) [Example 28, 4-Ethyl-2-hydroxycarbamoylmethyl-1,1-dioxo-1,2,3,4-tetrahydro-1λ^6-benzo[1,4]thiazine-6-carboxylic acid (pyridin-4-ylmethyl)-amide] | > 200 µM | 70.5 µM | – | –
2 | CCN1CC(CC(=O)NO)S(=O)(=O)c2ccc(C(=O)NCc3cccc(Br)c3)cc21 (stereo not shown) [Example 16, 4-Ethyl-2-hydroxycarbamoylmethyl-1,1-dioxo-1,2,3,4-tetrahydro-1λ^6-benzo[1,4]thiazine-6-carboxylic acid 3-bromo-benzylamide] | 2 µM | 9.7 µM | – | –
3 | CCN1CC(CC(=O)NO)S(=O)(=O)c2ccc(C(=O)NCc3ccccc3Br)cc21 (stereo not shown) [Example 15, 4-Ethyl-2-hydroxycarbamoylmethyl-1,1-dioxo-1,2,3,4-tetrahydro-1λ^6-benzo[1,4]thiazine-6-carboxylic acid 2-bromo-benzylamide] | 20 µM | 9.6 µM | – | –
4 | CCN1CC(CC(=O)NO)S(=O)(=O)c2ccc(C(=O)NCc3cccc(F)c3)cc21 (stereo not shown) [Example 13, 4-Ethyl-2-hydroxycarbamoylmethyl-1,1-dioxo-1,2,3,4-tetrahydro-1λ^6-benzo[1,4]thiazine-6-carboxylic acid 3-fluoro-benzylamide] | 11.7 µM | 13.7 µM | – | –
5 | CCN1CC(CC(=O)NO)S(=O)(=O)c2ccc(C(=O)NCc3cccs3)cc21 (stereo not shown) [Example 29, 4-Ethyl-2-hydroxycarbamoylmethyl-1,1-dioxo-1,2,3,4-tetrahydro-1λ^6-benzo[1,4]thiazine-6-carboxylic acid (thiophen-2-ylmethyl)-amide] | 9.5 µM | 3.4 µM | – | –
6 | CCN1CC(CC(=O)NO)S(=O)(=O)c2ccc(C(=O)NCc3ccc(OC(F)(F)F)cc3)cc21 (stereo not shown) [Example 26, 4-Ethyl-2-hydroxycarbamoylmethyl-1,1-dioxo-1,2,3,4-tetrahydro-1λ^6-benzo[1,4]thiazine-6-carboxylic acid 4-trifluoromethoxybenzylamide] | 1.1 µM | 5 µM | – | –
7 | CCN1CC(CC(=O)NO)S(=O)(=O)c2ccc(C(=O)NCc3cccc(OC)c3)cc21 (stereo not shown) [Example 22, 4-Ethyl-2-hydroxycarbamoylmethyl-1,1-dioxo-1,2,3,4-tetrahydro-1λ^6-benzo[1,4]thiazine-6-carboxylic acid 3-methoxy-benzylamide] | 1 µM | 2.3 µM | – | –
8 | O=C(CC1CN(CC2CCC2)c2ccccc2S1(=O)=O)NO (stereo not shown) [Example 36, 2-(4-Cyclobutylmethyl-1,1-dioxo-1,2,3,4-tetrahydro-1λ^6-benzo[1,4]thiazin-2-yl)-N-hydroxy-acetamide] | 3.3 µM | 3.8 µM | – | –
9 | CCN1CC(CC(=O)NO)S(=O)(=O)c2ccc(C(=O)NC3CC4CCC(C3)N4C)cc21 (stereo not shown) [Example 34] | – | – | 13.8 µM | 6 µM
10 | CCN1CC(CC(=O)NO)S(=O)(=O)c2ccccc21 (stereo not shown) [Example 4, 2-(4-Ethyl-1,1-dioxo-1,2,3,4-tetrahydro-1λ^6-benzo[1,4]thiazin-2-yl)-N-hydroxy-acetamide] | 1.4 µM | 2 µM | – | –
11 | CCN1CC(CC(=O)NO)S(=O)(=O)c2ccc(C(=O)NCc3ccccc3OC)cc21 (stereo not shown) [Example 21, 4-Ethyl-2-hydroxycarbamoylmethyl-1,1-dioxo-1,2,3,4-tetrahydro-1λ^6-benzo[1,4]thiazine-6-carboxylic acid 2-methoxy-benzylamide] | 1.5 µM | 1.5 µM | – | –
12 | O=C(CC1CN(Cc2ccccc2)c2ccccc2S1(=O)=O)NO (stereo not shown) [Example 9, 2-(4-Benzyl-1,1-dioxo-1,2,3,4-tetrahydro-1λ^6-benzo[1,4]thiazin-2-yl)-N-hydroxy-acetamide] | 21.2 µM | 21.4 µM | – | –
13 | O=C(CC1CN(Cc2cccc(F)c2)c2ccccc2S1(=O)=O)NO (stereo not shown) [Example 10, 2-[4-(3-Fluoro-benzyl)-1,1-dioxo-1,2,3,4-tetrahydro-1λ^6-benzo[1,4]thiazin-2-yl]-N-hydroxy-acetamide] | 27.7 µM | 28.4 µM | – | –
14 | CCN1CC(CC(=O)NO)S(=O)(=O)c2ccc(C(=O)Nc3cc[nH]n3)cc21 (stereo not shown) [Example 30, 4-Ethyl-2-hydroxycarbamoylmethyl-1,1-dioxo-1,2,3,4-tetrahydro-1λ^6-benzo[1,4]thiazine-6-carboxylic acid (1H-pyrazol-3-yl)-amide] | 11.5 µM | 30.8 µM | – | –
15 | CCN1CC(CC(=O)NO)S(=O)(=O)c2ccc(C(=O)Nc3cc(-c4cccs4)n[nH]3)cc21 (stereo not shown) [Example 33, 4-Ethyl-2-hydroxycarbamoylmethyl-1,1-dioxo-1,2,3,4-tetrahydro-1λ^6-benzo[1,4]thiazine-6-carboxylic acid (5-thiophen-2-yl-2H-pyrazol-3-yl)-amide] | 0.9 µM | 3 µM | – | –
16 | O=C(CC1CNc2ccccc2S1(=O)=O)NO (stereo not shown) [Example 2, 2-(1,1-Dioxo-1,2,3,4-tetrahydro-1λ^6-benzo[1,4]thiazin-2-yl)-N-hydroxy-acetamide] | 3.4 µM | 1.5 µM | – | –
17 | O=C(CC1CN(CC2CCCC2)c2ccccc2S1(=O)=O)NO (stereo not shown) [Example 37, 2-(4-Cyclopentylmethyl-1,1-dioxo-1,2,3,4-tetrahydro-1λ^6-benzo[1,4]thiazin-2-yl)-N-hydroxy-acetamide] | 11.1 µM | 13.9 µM | – | –
18 | O=C(CC1CN(CC2CCCCC2)c2ccccc2S1(=O)=O)NO (stereo not shown) [Example 38, 2-(4-Cyclohexylmethyl-1,1-dioxo-1,2,3,4-tetrahydro-1λ^6-benzo[1,4]thiazin-2-yl)-N-hydroxy-acetamide] | 33.2 µM | 18.1 µM | – | –
19 | CCN1CC(CC(=O)NO)S(=O)(=O)c2ccc(C(=O)NCc3ccccc3)cc21 (stereo not shown) [Example 11, 4-Ethyl-2-hydroxycarbamoylmethyl-1,1-dioxo-1,2,3,4-tetrahydro-1λ^6-benzo[1,4]thiazine-6-carboxylic acid benzylamide] | 17.6 µM | 8.9 µM | – | –
20 | CCN1CC(CC(=O)NO)Sc2ccccc21 (stereo not shown) [Example 3, 2-(4-Ethyl-3,4-dihydro-2H-benzo[1,4]thiazin-2-yl)-N-hydroxy-acetamide] | 2.6 µM | 5.6 µM | – | –
21 | CCN1CC(CC(=O)NO)S(=O)(=O)c2ccc(C(=O)NCc3ccccc3[N+](=O)[O-])cc21 (stereo not shown) [Example 18, 4-Ethyl-2-hydroxycarbamoylmethyl-1,1-dioxo-1,2,3,4-tetrahydro-1λ^6-benzo[1,4]thiazine-6-carboxylic acid 2-nitro-benzylamide] | 17.6 µM | 11.3 µM | – | –
22 | CCN1CC(CC(=O)NO)S(=O)(=O)c2ccc(C(=O)NCc3ccc([N+](=O)[O-])cc3)cc21 (stereo not shown) [Example 20, 4-Ethyl-2-hydroxycarbamoylmethyl-1,1-dioxo-1,2,3,4-tetrahydro-1λ^6-benzo[1,4]thiazine-6-carboxylic acid 4-nitro-benzylamide] | 1.2 µM | 3.9 µM | – | –
23 | CCN1CC(CC(=O)NO)S(=O)(=O)c2ccc(C(=O)Nc3nccs3)cc21 (stereo not shown) [Example 31, 4-Ethyl-2-hydroxycarbamoylmethyl-1,1-dioxo-1,2,3,4-tetrahydro-1λ^6-benzo[1,4]thiazine-6-carboxylic acid thiazol-2-ylamide] | 12.3 µM | 20.8 µM | – | –
24 | CCN1CC(CC(=O)NO)S(=O)(=O)c2ccc(C(=O)NCc3ccc(N(C)C)cc3)cc21 (stereo not shown) [Example 27, 4-Ethyl-2-hydroxycarbamoylmethyl-1,1-dioxo-1,2,3,4-tetrahydro-1λ^6-benzo[1,4]thiazine-6-carboxylic acid 4-dimethylaminobenzylamide] | 9.3 µM | 18.2 µM | – | –
25 | O=C(CC1CNc2ccccc2S1)NO (stereo not shown) [Example 1, 2-(3,4-Dihydro-2H-benzo[1,4]thiazin-2-yl)-N-hydroxy-acetamide] | 56.7 µM | 37.6 µM | – | –
26 | CCN1CC(CC(=O)NO)S(=O)(=O)c2ccc(C(=O)NCc3ccccc3F)cc21 (stereo not shown) [Example 12, 4-Ethyl-2-hydroxycarbamoylmethyl-1,1-dioxo-1,2,3,4-tetrahydro-1λ^6-benzo[1,4]thiazine-6-carboxylic acid 2-fluoro-benzylamide] | 10.8 µM | 36.8 µM | – | –
27 | CCCN1CC(CC(=O)NO)S(=O)(=O)c2ccccc21 (stereo not shown) [Example 6, 2-(1,1-Dioxo-4-propyl-1,2,3,4-tetrahydro-1λ^6-benzo[1,4]thiazin-2-yl)-N-hydroxy-acetamide] | 1.6 µM | 1.9 µM | – | –
28 | CCN1CC(CC(=O)NO)S(=O)(=O)c2ccc(C(=O)NCc3ccc(C(F)(F)F)cc3)cc21 (stereo not shown) [Example 25, 4-Ethyl-2-hydroxycarbamoylmethyl-1,1-dioxo-1,2,3,4-tetrahydro-1λ^6-benzo[1,4]thiazine-6-carboxylic acid 4-trifluoromethyl-benzylamide] | – | 4.2 µM | – | –
